{"source": "patent US12391683B2", "about": "“Therapeutic compounds and methods” (Actio Biosciences, Inc., priority 2022, dated 2025)", "biological_target": "T1, TRPC3 channels (Homo sapiens, UniProt Q13507)", "T1 construct": "expressed in transfected cells; host or cells: HEK293", "T1 sequence (Q13507 1-921)": "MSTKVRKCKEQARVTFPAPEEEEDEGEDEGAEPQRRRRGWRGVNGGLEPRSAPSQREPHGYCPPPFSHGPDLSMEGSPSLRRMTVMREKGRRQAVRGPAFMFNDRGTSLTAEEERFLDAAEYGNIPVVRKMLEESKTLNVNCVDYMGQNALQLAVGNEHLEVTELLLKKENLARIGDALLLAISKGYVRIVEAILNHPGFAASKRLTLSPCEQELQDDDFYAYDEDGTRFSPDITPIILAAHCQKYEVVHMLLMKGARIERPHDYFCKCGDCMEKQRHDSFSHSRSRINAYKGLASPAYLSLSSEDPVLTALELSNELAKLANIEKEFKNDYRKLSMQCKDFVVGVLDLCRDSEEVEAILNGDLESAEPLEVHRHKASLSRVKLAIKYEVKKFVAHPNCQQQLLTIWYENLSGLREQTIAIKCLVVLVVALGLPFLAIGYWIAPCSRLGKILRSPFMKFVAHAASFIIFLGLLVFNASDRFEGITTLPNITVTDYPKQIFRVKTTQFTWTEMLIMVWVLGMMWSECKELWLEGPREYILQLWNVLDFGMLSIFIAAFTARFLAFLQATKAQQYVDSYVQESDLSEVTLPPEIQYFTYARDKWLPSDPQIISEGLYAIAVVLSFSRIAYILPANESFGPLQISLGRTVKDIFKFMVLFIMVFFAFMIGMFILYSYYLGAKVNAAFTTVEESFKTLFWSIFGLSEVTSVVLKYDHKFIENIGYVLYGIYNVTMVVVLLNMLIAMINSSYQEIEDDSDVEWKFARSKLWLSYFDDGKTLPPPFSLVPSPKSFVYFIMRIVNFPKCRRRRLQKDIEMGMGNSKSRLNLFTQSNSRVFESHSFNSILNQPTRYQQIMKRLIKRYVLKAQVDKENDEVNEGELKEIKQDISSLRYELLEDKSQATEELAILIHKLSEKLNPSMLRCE", "assay": "TRP Family FLIPR Assay, TRPC3", "format": "cell-based", "conditions": "HEK293 cells", "procedure": "The compound of Example 5 was tested for selectivity against a panel of Human TRP family ion channels in a TRP Family FLIPR Assay as described below. • 1. TRPC3 channels (human TRPC3 variant 1 gene, expressed in HEK293 cells). • 2. TRPC4 channels (human TRPC4 gene, expressed in HEK293 cells). • 3. TRPC5 channels (human TRPC5 gene, expressed in HEK293 cells). • 4. TRPC6 channels (human TRPC6 gene, expressed in HEK293 cells). • 5. TRPM2 channels (human TRPM2 gene, transiently expressed in HEK293 cells). • 6. TRPM3 channels (human TRPM3 gene, transiently expressed in HEK293 cells). • 7. TRPM4 channels (human TRPM4 gene, expressed in CHO cells). • 8. […]\nData acquisition was performed via the FLIPR Control software supplied with the FLIPR System (MDS-AT) and data was analyzed using Microsoft Excel (Microsoft Corp., Redmond, WA) or GraphPad Prism. […]\n[formula] where Base is the response at low concentrations of test article, Max is the maximum response at high concentrations, xhalf the EC50, or IC50, the concentration of test article producing either half-maximal activation or inhibition, and rate is the Hill coefficient. […] No assumptions about the fit parameters was made; the fit parameters were determined by the algorithm.\nThe effect of each test article was evaluated at eight (8) concentrations: 0.003, 0.01, 0.03, 0.1, 0.3, 1, 3 and 10 μM, n≤4 wells/concentration). […]"}
{"compound": "CC(C)(O)c1cnc(N2C[C@@]3(CC[C@@H](F)[C@](C)(Cn4cnc5ccc(C#N)cc54)C3)OC2=O)cn1", "note": "(single isomer, unassigned) [Example 5]", "values": [{"measurement": "EC50", "setting": "agonist mode, vs EMAX of GSK1702934A 30 μM, read-out: EC50 hTRPC3", "value": "> 10", "unit": "µM"}, {"measurement": "IC50", "setting": "antagonist mode, activated with 15 μM GSK1702934A, 0.003-10 μM, read-out: IC50 hTRPC3", "value": "> 10", "unit": "µM"}]}
